Results as given in patent publication US11608341B2, “Substituted tetrahydropyrazolo[3,4-d]pyrimidines and tetrahydropyrazolo[4,3-d]pyrimidines as C5A receptor modulators” (Idorsia Pharmaceuticals Ltd., priority 2018, dated 2023).
pIC50: −log10 of the molar value.

Molecular target: T1, C5AR1 (Homo sapiens, UniProt P21730)
T1 construct: host or cells: CHO-K1
T1 sequence (P21730 1-350): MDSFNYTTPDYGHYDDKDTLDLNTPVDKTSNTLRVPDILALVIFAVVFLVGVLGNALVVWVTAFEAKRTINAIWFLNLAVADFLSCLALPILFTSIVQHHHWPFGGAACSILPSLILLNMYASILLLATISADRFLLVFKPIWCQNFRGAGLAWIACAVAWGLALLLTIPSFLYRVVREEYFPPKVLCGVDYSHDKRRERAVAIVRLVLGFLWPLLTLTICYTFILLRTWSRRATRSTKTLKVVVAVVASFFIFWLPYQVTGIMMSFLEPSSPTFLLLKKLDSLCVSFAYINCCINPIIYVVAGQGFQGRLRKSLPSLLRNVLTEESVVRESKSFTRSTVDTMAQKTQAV
Assay: In vitro assay: antagonism of C5a-induced beta-arrestin recruitment (PathHunter) in CHO-K1 C5AR1 beta-arrestin cell line
Type: cell-based
Conditions: antagonistic activity, 1-10 nM C5a agonist, geometric mean where several measurements, read-out: C5aR IC50
Outline: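 Antagonist or DMSO added first, then C5a (1-10 nM, added at 6-fold end concentration), 1.5 h at 37 °C. PathHunter detection reagent was added for 45 min at RT before plate reading. IC50s come from antagonist serial dilutions in nmol/l and are geometric means of several measurements.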

SMILES	pIC50
Cc1cccc(F)c1N1CCC(N2Cc3cn(C4CN(C(=O)OCC(C)C)C4)nc3N(Cc3ccccc3C(F)(F)F)C2=O)CC1 [Example 132]	8.10
Cc1cccc(F)c1N1CCC(N2Cc3cn(C[C@@H]4CCN4C(=O)OC(C)C)nc3N(Cc3ccccc3C(F)(F)F)C2=O)CC1 [Example 125]	7.85
CC(c1ccccc1C(F)(F)F)N1C(=O)N(C2CCN(c3c(F)cccc3F)CC2)Cc2cn(C)nc21 (single isomer, unassigned) [Example 291]	6.94
COc1nccc(C(F)F)c1N1CCC(N2C(=O)N(Cc3ccccc3C3CC3)c3nn(C)cc3C2C)CC1 (single isomer, unassigned) [Example 367]	6.54
Cc1cccc(F)c1N1CCC(N2Cc3cn(C(=O)OC(C)C)nc3N(Cc3ccccc3C(F)(F)F)C2=O)CC1 [Example 147]	6.82
COc1nccc(C)c1N1CCC(N2C(=O)N(Cc3ncccc3C(F)(F)F)c3nn(C)cc3C2C)CC1 (single isomer, unassigned) [Example 356]	8.30
Cn1cc2c(n1)N(Cc1ccccc1C(F)(F)F)C(=O)N(C1CCN(c3c(F)cccc3C3CC3)CC1)C2 [Example 303]	8.00
Cc1cccc(F)c1N1CCC(N2Cc3nn(C)cc3N(Cc3ccccc3C(C)C)C2=O)CC1 [Example 260]	7.40
Cc1cccc(F)c1N1CCC(N2Cc3nn(C)cc3N(C(C)c3ccccc3C(F)(F)F)C2=O)CC1 (single isomer, unassigned) [Example 262]	6.33
Cc1cccc(F)c1N1CCC(N2Cc3cn(C[C@H]4CCN4)nc3N(Cc3ccccc3C(F)(F)F)C2=O)CC1 [Example 130]	6.41
COc1nccc(C(F)(F)F)c1N1CCC(N2C(=O)N(Cc3ccccc3C(F)(F)F)c3nn(C)cc3C2C)CC1 (single isomer, unassigned) [Example 363]	7.01
Cc1cccc(F)c1N1CCC(N2Cc3cn(C4CN(C(=O)OC(C)(C)C)C4)nc3N(Cc3ccccc3C(F)(F)F)C2=O)CC1 [Example 91]	7.59
Cc1cccc(F)c1N1CCC(N2Cc3cn(CCNC(=O)OC(C)(C)C)nc3N(Cc3ccccc3C(F)(F)F)C2=O)CC1 [Example 67]	7.82
Cc1cccc(F)c1N1CCC(N2Cc3cn(C4CCNC4)nc3N(Cc3ccccc3C(F)(F)F)C2=O)CC1 (centres unmarked) [Example 94]	6.14
CC1c2c[nH]nc2N(Cc2ccccc2C(F)(F)F)C(=O)N1C1CCN(c2c(F)cccc2C(F)F)CC1 (single isomer, unassigned) [Example 348]	7.96
Cc1cccc(F)c1N1CCC(N2C(=O)N(Cc3ccccc3C(F)(F)F)c3c[nH]nc3C2C)CC1 (single isomer, unassigned) [Example 263]	7.68
COc1nccc(C)c1N1CCC(N2Cc3c(cnn3COCC[Si](C)(C)C)N(Cc3ccccc3C(F)(F)F)C2=O)CC1 [Example 216]	7.39
COC(=O)N1CC[C@H]1Cn1cc2c(n1)N(Cc1ccccc1C(F)(F)F)C(=O)N(C1CCN(c3c(C)cccc3F)CC1)C2 [Example 123]	7.72
Cc1cccc(F)c1N1CCC(N2C(=O)N(Cc3ccccc3C3CC3)c3cn(C4CCCCO4)nc3C2C)CC1 (centres unmarked) [Example 268]	7.14
Cc1cccc(F)c1N1CCC(N2Cc3cn(CC(C)F)nc3N(Cc3ccccc3C(F)(F)F)C2=O)CC1 (single isomer, unassigned) [Example 186]	8.10

SMILES	pIC50
CC1c2cn(C3CCCCO3)nc2N(Cc2ccccc2C(F)(F)F)C(=O)N1C1CCN(c2c(F)cccc2C(F)F)CC1 (centres unmarked) [Example 341]	7.51
Cc1cccc(F)c1N1CCC(N2C(=O)N(Cc3ccccc3C(F)(F)F)c3cn(C4CCCCO4)nc3C2C)CC1 (centres unmarked) [Example 294]	7.25
Cc1cccc(F)c1N1CCC(N2Cc3cn(CC(C)CN)nc3N(Cc3ccccc3C(F)(F)F)C2=O)CC1 (centres unmarked) [Example 45]	6.69
COc1nccc(C)c1N1CCC(N2Cc3nn(C)cc3N(Cc3ccccc3C(F)(F)F)C2=O)CC1 [Example 224]	7.12
Cn1cc2c(n1)N(Cc1ccccc1C(F)(F)F)C(=O)N(C1CCN(c3ccccc3C3CC3)CC1)C2 [Example 258]	7.85
CC1c2cn(C)nc2N(Cc2ccccc2C(F)(F)F)C(=O)N1C1CCN(c2c(F)cccc2C2CC2)CC1 (single isomer, unassigned) [Example 334]	6.68
COC(=O)C(C)Cn1cc2c(n1)N(Cc1ccccc1C(F)(F)F)C(=O)N(C1CCN(c3c(C)cccc3F)CC1)C2 (centres unmarked) [Example 31]	7.89
Cc1cccc(F)c1N1CCC(N2Cc3cn(CCN4CCOCC4)nc3N(Cc3ccccc3C(F)(F)F)C2=O)CC1 [Example 64]	7.68
Cc1cccc(F)c1N1CCC(N2C(=O)N(Cc3ccccc3C3CC3)c3cn(CC(C)(F)F)nc3C2C)CC1 (single isomer, unassigned) [Example 277]	7.25
Cc1cccc(F)c1N1CCC(N2Cc3cn(C4CN(C(=O)C(C)C)C4)nc3N(Cc3ccccc3C(F)(F)F)C2=O)CC1 [Example 131]	7.00
Cc1cccc(F)c1N1CCC(N2Cc3cn(C)nc3N(Cc3ccccc3OC3CC3)C2=O)CC1 [Example 21]	7.89
COc1nccc(C)c1N1CCC(N2C(=O)N(Cc3ccccc3C(F)(F)F)c3nn(C4CC4)cc3C2C)CC1 (single isomer, unassigned) [Example 345]	7.46
Cc1cccc(F)c1N1CCC(N2Cc3cn(CC(CO)N(C)C)nc3N(Cc3ccccc3C(F)(F)F)C2=O)CC1 (centres unmarked) [Example 56]	7.04
COc1nccc(C)c1N1CCC(N2Cc3nn(CC4(F)CC4)cc3N(Cc3ccccc3C(F)(F)F)C2=O)CC1 [Example 222]	7.72
Cc1cccc(F)c1N1CCC(N2Cc3cn(C)nc3N(Cc3ccccc3C3CC3)C2=O)CC1 [Example 228]	8.00
COc1ncnc(C)c1N1CCC(N2Cc3cn(C)nc3N(Cc3ccccc3C(F)(F)F)C2=O)CC1 [Example 96]	6.31
Cc1cccc(F)c1N1CCC(N2Cc3cn(C4CN(CC(F)F)C4)nc3N(Cc3ccccc3C(F)(F)F)C2=O)CC1 [Example 106]	7.62
Cc1cccc(F)c1N1CCC(N2C(=O)N(Cc3ccccc3C(F)(F)F)c3cnn(CC(C)(F)F)c3C2C)CC1 (single isomer, unassigned) [Example 256]	6.24
Cc1cccc(F)c1N1CCC(N2Cc3cn(C4CC4)nc3N(Cc3c(Br)cccc3C(F)(F)F)C2=O)CC1 [Example 213]	7.28
Cc1cccc(F)c1N1CCC(N2C(=O)N(Cc3ccccc3C3CC3)c3cn(C4CC4)nc3C2C)CC1 (single isomer, unassigned) [Example 278]	6.31

SMILES	pIC50
Cc1cccc(F)c1N1CCC(N2Cc3cn(C4CN(c5nnc(C(C)C)o5)C4)nc3N(Cc3ccccc3C(F)(F)F)C2=O)CC1 [Example 143]	7.77
Cc1cccc(F)c1N1CCC(N2C(=O)N(Cc3ccccc3C(F)(F)F)c3cn(C)nc3C2C)CC1 (single isomer, unassigned) [Example 202]	6.04
Cc1cccc(F)c1N1CCC(N2Cc3nn(C)nc3N(Cc3ncccc3C(F)(F)F)C2=O)CC1 [Example 128]	7.82
Cn1cc2c(n1)N(Cc1ccccc1C(F)(F)F)C(=O)N(C1CCN(c3c(F)cccc3C#N)CC1)C2 [Example 49]	7.92
Cc1cccc(F)c1N1CCCC(N2Cc3cn(C)nc3N(Cc3ccccc3C(F)(F)F)C2=O)C1 (single isomer, unassigned) [Example 242]	6.20
COCCN(C)CCn1cc2c(n1)N(Cc1ccccc1C(F)(F)F)C(=O)N(C1CCN(c3c(C)cccc3F)CC1)C2 [Example 74]	7.59
COc1nccc(C)c1N1CCC(N2Cc3cn(C)nc3N(Cc3ccccc3C(F)(F)F)C2=O)CC1 [Example 54]	7.85
COc1nccc(C(F)F)c1N1CCC(N2C(=O)N(Cc3ccccc3C(F)(F)F)c3nn(C)cc3C2C)CC1 (single isomer, unassigned) [Example 347]	6.70
CC1c2cn(C3CC3)nc2N(Cc2ccccc2C2CC2)C(=O)N1C1CCN(c2c(F)cccc2Cl)CC1 (single isomer, unassigned) [Example 338]	6.96
COc1ccnc(OC)c1N1CCC(N2Cc3cn(C)nc3N(Cc3ccccc3C(F)(F)F)C2=O)CC1 [Example 95]	6.90
Cc1nn(C)c(N2CCC(N3Cc4cn(C)nc4N(Cc4ccccc4C(F)(F)F)C3=O)CC2)c1Cl [Example 238]	6.78
CC1c2cn(C3CC3)nc2N(Cc2ccccc2C(F)(F)F)C(=O)N1C1CCN(c2c(F)cccc2Br)CC1 (single isomer, unassigned) [Example 361]	7.89
CCOC(=O)N1CC[C@H]1Cn1cc2c(n1)N(Cc1ccccc1C(F)(F)F)C(=O)N(C1CCN(c3c(C)cccc3F)CC1)C2 [Example 124]	7.89
Cc1cccc(F)c1N1CCC(N2Cc3nn(C)cc3N(Cc3ncccc3C(F)(F)F)C2=O)CC1 [Example 15]	7.35
COc1nccc(C)c1N1CCC(N2C(=O)N(Cc3ccccc3C3CC3)c3cn(C4CC4)nc3C2C)CC1 (single isomer, unassigned) [Example 293]	7.70
COc1nccc(C)c1N1CCC(N2C(=O)N(Cc3ccccc3C(F)(F)F)c3cn(C4CC4)nc3C2C)CC1 (single isomer, unassigned) [Example 297]	6.49
CNC(=O)N1CC(n2cc3c(n2)N(Cc2ccccc2C(F)(F)F)C(=O)N(C2CCN(c4c(C)cccc4F)CC2)C3)C1 [Example 120]	5.87
COC(=O)Cn1cc2c(n1)CN(C1CCN(c3c(C)cccc3F)CC1)C(=O)N2Cc1ccccc1C(F)(F)F [Example 18]	6.88
Cc1nnc(N2CC(n3cc4c(n3)N(Cc3ccccc3C(F)(F)F)C(=O)N(C3CCN(c5c(C)cccc5F)CC3)C4)C2)o1 [Example 142]	7.49
